Publication PMC6934184, “Selective DNA-PKcs inhibition extends the therapeutic index of localized radiotherapy and chemotherapy” (The Journal of Clinical Investigation, 2019)

Biological target: T1, PRKG2 (PKG2) (Homo sapiens, UniProt Q13237)
T1 construct: purchased Thermo Fisher Scientific (Life Technologies) SelectScreen
Assay: SelectScreen Z'LYTE
Type: biochemical
Summary of the method: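 NU5455 was profiled across the SelectScreen Broad panel of kinase activity and binding assays. Z'LYTE reactions such as CSF1R ran at apparent Km ATP, while the Adapta CAMK1 assay used ATP listed as 10. Values are given as percent.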

T1 sequence (Q13237 whole entry): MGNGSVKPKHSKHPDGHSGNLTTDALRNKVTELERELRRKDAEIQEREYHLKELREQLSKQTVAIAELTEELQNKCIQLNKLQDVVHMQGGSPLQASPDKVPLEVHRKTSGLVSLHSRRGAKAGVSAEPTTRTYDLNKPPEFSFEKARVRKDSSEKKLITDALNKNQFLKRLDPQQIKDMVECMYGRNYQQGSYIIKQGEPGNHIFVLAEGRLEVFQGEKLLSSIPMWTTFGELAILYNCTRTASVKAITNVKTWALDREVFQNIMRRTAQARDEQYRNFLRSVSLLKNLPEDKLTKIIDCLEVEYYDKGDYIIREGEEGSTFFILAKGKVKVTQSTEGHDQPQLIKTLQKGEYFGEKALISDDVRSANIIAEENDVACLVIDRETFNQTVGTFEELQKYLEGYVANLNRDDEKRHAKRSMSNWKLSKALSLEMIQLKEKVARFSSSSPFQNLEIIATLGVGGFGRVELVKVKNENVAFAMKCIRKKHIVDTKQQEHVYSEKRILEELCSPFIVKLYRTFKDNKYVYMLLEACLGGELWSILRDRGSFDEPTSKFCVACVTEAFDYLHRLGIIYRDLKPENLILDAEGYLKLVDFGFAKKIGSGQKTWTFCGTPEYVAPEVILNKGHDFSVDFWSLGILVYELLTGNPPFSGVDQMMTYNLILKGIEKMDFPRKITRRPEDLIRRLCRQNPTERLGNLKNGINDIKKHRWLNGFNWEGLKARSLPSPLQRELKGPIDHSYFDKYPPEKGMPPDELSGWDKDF

Compound `CN(C(=O)CN1CCOCC1)c1ccc2sc3c(-c4cccc5c(=O)cc(N6CC7CCC(C6)O7)oc45)cccc3c2c1` [NU5455] has an inhibition at 1 µM of -5.1%.
